From US7919616B2, “Carbapenem compound” (priority 2005, dated 2011)

Legend:
[1] = Stability test of compound (Ia) in crystalline state (purity by HPLC on storage); type: physicochemical; conditions: 20° C. and 40° C., after 6, 17, 21 and 31 days
Protocol: Stability Test of Compound (Ia) in Crystalline State
About 2 g of the compound (Ia) in a crystalline form which was obtained in the same way as Example 1 was placed in sample bottles, and the sample bottles were stored at room temperature (about 20° C.) and in a room maintained at a temperature of about 40° C. Taking the original purity as 100%, after every several number of days, the purity of the compound (Ia) was measured using high-performance liquid chromatography (HPLC). The HPLC measurement conditions are shown below.
Solvent delivery system: LC-10A (manufactured by Shimadzu Corporation)
UV, VIS detector: SPD-10A (manufactured by Shimadzu Corporation)
Detection wavelength: 215 nm
Column heater: Sugai U-620 (used at 40° C., Sugai Chemical Industry Co., Ltd.)
Column: Inertsil® ODS-2 (4.6 mm diameter×250 mm length, GL Sciences, Inc.)

[2] = disclosed in Patent Document 1; cited from earlier work

Structure (SMILES) | stability of the crystalline form [1] | stability in the crystalline form [2]
C=CCOC(=O)C1=C(OP(=O)(OCC(Cl)(Cl)Cl)OCC(Cl)(Cl)Cl)[C@H](C)[C@@H]2[C@@H]([C@@H](C)O)C(=O)N12 [compound (Ia), allyl-(1R,5R,6S)-2-[bis(2,2,2-trichloroethyl)phosphoryloxy]-6-[(R)-1-hydroxyethyl]-1-methyl-carbapenem-3-carboxylate] | very stable without a decrease in purity | 
C[C@@H](O)[C@H]1C(=O)N2C(C(=O)OCc3ccc([N+](=O)[O-])cc3)=C(OP(=O)(Oc3ccccc3)Oc3ccccc3)[C@H](C)[C@H]12 [compound (Ib)] |  | excellent stability in the crystalline form
